Earlier results, collected in US20030087843A1, “O-pyrazole glucoside SGLT2 inhibitors and method of use” (priority 2001, published 2003).

What was measured:
human SGLT1 = molecular target: T1, human SGLT1 (Homo sapiens, UniProt P13866); details: read-out: Km for uptake of AMG
T1 sequence (P13866 1-664): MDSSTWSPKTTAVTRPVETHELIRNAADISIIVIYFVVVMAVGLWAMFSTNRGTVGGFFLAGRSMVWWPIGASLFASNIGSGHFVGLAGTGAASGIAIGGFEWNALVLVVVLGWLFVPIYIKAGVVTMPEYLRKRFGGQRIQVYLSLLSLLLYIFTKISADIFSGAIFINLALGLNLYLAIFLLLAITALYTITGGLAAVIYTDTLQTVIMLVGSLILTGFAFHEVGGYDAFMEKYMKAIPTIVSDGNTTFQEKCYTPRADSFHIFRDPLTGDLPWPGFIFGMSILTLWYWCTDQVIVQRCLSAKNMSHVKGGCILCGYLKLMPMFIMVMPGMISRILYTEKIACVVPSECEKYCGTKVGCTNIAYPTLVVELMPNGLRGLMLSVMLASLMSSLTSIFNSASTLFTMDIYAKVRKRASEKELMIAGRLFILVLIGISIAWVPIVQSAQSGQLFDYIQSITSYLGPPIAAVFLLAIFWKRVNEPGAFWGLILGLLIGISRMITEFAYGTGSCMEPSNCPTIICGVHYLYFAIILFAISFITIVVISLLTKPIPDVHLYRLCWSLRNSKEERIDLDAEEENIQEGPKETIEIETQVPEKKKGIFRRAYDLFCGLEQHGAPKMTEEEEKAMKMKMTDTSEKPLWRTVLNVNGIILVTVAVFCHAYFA

human SGLT2 = molecular target: T2, human SGLT2 (Homo sapiens, UniProt P31639); details: read-out: Km for uptake of AMG
T2 sequence (P31639 1-672): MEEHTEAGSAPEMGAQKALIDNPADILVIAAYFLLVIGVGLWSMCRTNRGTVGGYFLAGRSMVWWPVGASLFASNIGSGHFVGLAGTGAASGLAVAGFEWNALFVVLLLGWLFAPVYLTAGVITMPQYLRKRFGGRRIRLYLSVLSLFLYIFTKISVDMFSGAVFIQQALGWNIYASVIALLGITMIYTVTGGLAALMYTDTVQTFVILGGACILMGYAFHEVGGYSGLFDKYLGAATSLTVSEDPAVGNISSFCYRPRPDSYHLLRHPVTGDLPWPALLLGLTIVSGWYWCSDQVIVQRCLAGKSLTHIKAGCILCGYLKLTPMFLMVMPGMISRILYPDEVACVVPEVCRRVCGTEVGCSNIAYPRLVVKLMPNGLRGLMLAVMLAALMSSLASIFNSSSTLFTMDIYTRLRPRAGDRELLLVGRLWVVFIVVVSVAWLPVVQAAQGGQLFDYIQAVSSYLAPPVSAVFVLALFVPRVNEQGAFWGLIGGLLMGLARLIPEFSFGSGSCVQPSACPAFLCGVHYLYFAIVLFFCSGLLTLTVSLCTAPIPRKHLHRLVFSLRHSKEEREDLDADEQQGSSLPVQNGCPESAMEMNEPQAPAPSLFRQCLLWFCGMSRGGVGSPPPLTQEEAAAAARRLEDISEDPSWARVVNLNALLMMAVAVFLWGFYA

[1] = system: facilitative glucose transporters (GLUTs)
[2] = normal animals, despite the presence of glycosuria
[3] = oral
[4] = diabetic rodent models and one canine diabetes model

For `CO[C@H]1O[C@H](CO)[C@@H](O)[C@H](O)[C@H]1O` [AMG, α-methyl-D-glucopyranoside], the Km (human SGLT1) is given as 400 µM and the Km (human SGLT2) is given as 1600 µM.
For `O=C(CCc1ccc(O)cc1)c1c(O)cc(O)cc1O` [phloretin], the “inhibition of facilitated glucose transport” value [1] is listed as “potent inhibitor”.
For `O=C(CCc1ccc(O)cc1)c1c(O)cc(O)cc1O[C@@H]1O[C@H](CO)[C@@H](O)[C@H](O)[C@H]1O` [phlorizin], the “fasting and fed plasma glucose” value (SGLT2 activity; [4]) is given as “lowering fasting and fed plasma glucose”, the glucose excretion (SGLT2 activity; [4]) is given as “promoting glucose excretion” and the hypoglycemic side effects (SGLT2 activity; [4]) is given as “without hypoglycemic side effects”. The “adverse effects on plasma ion balance, renal function or renal morphology” value (SGLT2 activity; treatment for as long as two weeks) was “No adverse effects”, the “hypoglycemic or other adverse effects” value [2] was “no hypoglycemic or other adverse effects” and the “hydrolysis in the gut” value [3] was “hydrolyzed in the gut to its aglycone phloretin”.
